From US8796245B2 (TetraPhase Pharmaceuticals, Inc., priority 2008, dated 2014)
Converted amounts (≈) assume the structure as drawn.

Key:
Type in all cases: cell-based
[1] = tested on: A. baumanii ATCC 19606 (AB110); assay: Minimum inhibitory concentration assay, AB110; conditions: Acinetobacter baumannii, ATCC19606; A. baumanii ATCC 19606, wt; read-out: MICs AB110
Procedure, shortened: (§1)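 Strains were passaged overnight twice, and isolated colonies were adjusted to 0.5 McFarland and then diluted 1:125 in MHB. Compound was serially diluted across the plate, inoculum was added, and plates were held overnight at 37° C. The endpoint is the lowest concentration without growth.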

[2] = tested on: E. faecalis EF159 (tet resistant: tetM); assay: Minimum inhibitory concentration assay, EF159; conditions: Enterococcus faecalis, read-out: MICs EF159
Procedure, shortened: as §1

[3] = tested on: P. aeruginosa ATCC 27853 (PA111); assay: Minimum inhibitory concentration assay, PA111; conditions: Pseudomonas aeruginosa, ATCC27853; P. aeruginosa ATCC 27853, wt; read-out: MICs PA111
Procedure, shortened: as §1

[4] = tested on: S. aureus SA161 (tet resistant: tet(M) ribosomal protection); assay: Minimum inhibitory concentration assay, SA161; conditions: Staphylococcus aureus, read-out: MICs SA161
Procedure, shortened: as §1

[5] = tested on: S. pneumoniae SP160 (tet resistant: tet M); assay: Minimum inhibitory concentration assay, SP160; conditions: Streptococcus pneumoniae, read-out: MICs SP160
Procedure, shortened: as §1

[6] = tested on: E. coli ATCC 25922 (EC107); assay: Minimum inhibitory concentration assay, EC107; conditions: Escherichia coli, ATCC25922; E. coli ATCC 25922, wt; read-out: MICs EC107
Procedure, shortened: as §1

[7] = tested on: S. pneumoniae ATCC 49619 (SP106); assay: Minimum inhibitory concentration assay, SP106; conditions: Streptococcus pneumoniae, ATCC49619; S. pneumoniae ATCC 49619, wt; read-out: MICs SP106
Procedure, shortened: as §1

[8] = tested on: K. pneumoniae ATCC 13883 (KP109); assay: Minimum inhibitory concentration assay, KP109; conditions: Klebsiella pneumoniae, ATCC13883; K. pneumoniae ATCC 13883, wt; read-out: MICs KP109
Procedure, shortened: as §1

[9] = tested on: S. aureus ATCC 29213 (SA101, MSSA); assay: Minimum inhibitory concentration assay, SA101; conditions: Staphylococcus aureus; S. aureus ATCC 29213, MSSA control; read-out: MICs SA101
Procedure, shortened: as §1

[10] = tested on: E. coli EC155 (tet resistant: tetA efflux); assay: microbe, parasite or virus in culture; conditions: Escherichia coli; E. coli tet resistant: tetA (efflux); read-out: MICs EC155
Procedure, shortened: as §1

[11] = tested on: K. pneumoniae KP153 (tet resistant: tetA efflux); assay: microbe, parasite or virus in culture; conditions: Klebsiella pneumoniae, read-out: MICs KP153
Procedure, shortened: as §1

[12] = tested on: S. aureus SA158 (tet resistant: tetK efflux); assay: microbe, parasite or virus in culture; conditions: Staphylococcus aureus, read-out: MICs SA158
Procedure, shortened: as §1

[13] = tested on: S. aureus ATCC 13709 (SA100, MSSA, Smith strain); assay: Minimum inhibitory concentration assay, SA100; conditions: Staphylococcus aureus; S. aureus ATCC 13709, MSSA Smith strain; read-out: MICs SA100
Procedure, shortened: as §1

[14] = tested on: E. faecalis ATCC 29212 (EF103); assay: Minimum inhibitory concentration assay, EF103; conditions: Enterococcus faecalis, ATCC29212, read-out: MICs EF103
Procedure, shortened: as §1

[15] = tested on: E. cloacae ATCC 13047 (EC108); assay: Minimum inhibitory concentration assay, EC108; conditions: Enterobacter cloacae, ATCC13047; E. cloacae ATCC 13047, wt; read-out: MICs EC108
Procedure, shortened: as §1

Row | SMILES | MIC [1] [µg/mL] | MIC [2] [µg/mL] | MIC [3] [µg/mL] | MIC [4] [µg/mL] | MIC [5] [µg/mL] | MIC [6] [µg/mL] | MIC [7] [µg/mL] | MIC [8] [µg/mL] | MIC [9] [µg/mL] | MIC [10] [µg/mL] | MIC [11] [µg/mL] | MIC [12] [µg/mL] | MIC [13] [µg/mL] | MIC [14] [µg/mL] | MIC [15] [µg/mL]
1 | CN(C)[C@@H]1CCN(CC(=O)Nc2cc(F)c3c(c2O)C(=O)C2=C(O)[C@]4(O)C(=O)C(C(N)=O)=C(O)[C@@H](N(C)C)[C@@H]4C[C@@H]2C3)C1 [Compound 37] | > 32 | 16 (≈ 26.6 µM) | > 32 | > 32 | 4 (≈ 6.65 µM) | > 32 | 2 (≈ 3.32 µM) | > 32 | 8 (≈ 13.3 µM) | > 32 | > 32 | > 32 | 8 (≈ 13.3 µM) | 16 (≈ 26.6 µM) | > 32
2 | CN(C)[C@H]1CCN(CC(=O)Nc2cc(F)c3c(c2O)C(=O)C2=C(O)[C@]4(O)C(=O)C(C(N)=O)=C(O)[C@@H](N(C)C)[C@@H]4C[C@@H]2C3)C1 [Compound 38] | > 32 | 16 (≈ 26.6 µM) | > 32 | 16 (≈ 26.6 µM) | 8 (≈ 13.3 µM) | > 32 | 2 (≈ 3.32 µM) | > 32 | 8 (≈ 13.3 µM) | > 32 | > 32 | 32 (≈ 53.2 µM) | 8 (≈ 13.3 µM) | 8 (≈ 13.3 µM) | > 32
3 | CN(C)[C@@H]1C(O)=C(C(N)=O)C(=O)[C@@]2(O)C(O)=C3C(=O)c4c(O)c(NC(=O)CN5CC[C@@H](O)C5)cc(F)c4C[C@H]3C[C@@H]12 [Compound 39] | 32 (≈ 55.7 µM) | 2 (≈ 3.48 µM) | > 32 | 2 (≈ 3.48 µM) | 0.5 (≈ 0.87 µM) | 4 (≈ 6.96 µM) | 0.25 (≈ 0.435 µM) | 16 (≈ 27.8 µM) | 2 (≈ 3.48 µM) | > 32 | > 32 | 16 (≈ 27.8 µM) | 2 (≈ 3.48 µM) | 2 (≈ 3.48 µM) | 16 (≈ 27.8 µM)
4 | CN(C)[C@@H]1C(O)=C(C(N)=O)C(=O)[C@@]2(O)C(O)=C3C(=O)c4c(O)c(NC(=O)CN5CC[C@H](O)C5)cc(F)c4C[C@H]3C[C@@H]12 [Compound 40] | 8 (≈ 13.9 µM) | 1 (≈ 1.74 µM) | 32 (≈ 55.7 µM) | 1 (≈ 1.74 µM) | 0.5 (≈ 0.87 µM) | 4 (≈ 6.96 µM) | 0.0625 (≈ 0.109 µM) | 8 (≈ 13.9 µM) | 1 (≈ 1.74 µM) | > 32 | 32 (≈ 55.7 µM) | 16 (≈ 27.8 µM) | 1 (≈ 1.74 µM) | 1 (≈ 1.74 µM) | 4 (≈ 6.96 µM)
5 | COC[C@@H]1CCCN1CC(=O)Nc1cc(F)c2c(c1O)C(=O)C1=C(O)[C@]3(O)C(=O)C(C(N)=O)=C(O)[C@@H](N(C)C)[C@@H]3C[C@@H]1C2 [Compound 41] | 0.5 (≈ 0.83 µM) | 2 (≈ 3.32 µM) | > 32 | 2 (≈ 3.32 µM) | 0.125 (≈ 0.207 µM) | 4 (≈ 6.64 µM) | 0.125 (≈ 0.207 µM) | 8 (≈ 13.3 µM) | 1 (≈ 1.66 µM) | 16 (≈ 26.6 µM) | 16 (≈ 26.6 µM) | 1 (≈ 1.66 µM) | 1 (≈ 1.66 µM) | 1 (≈ 1.66 µM) | 16 (≈ 26.6 µM)
6 | COC[C@H]1CCCN1CC(=O)Nc1cc(F)c2c(c1O)C(=O)C1=C(O)[C@]3(O)C(=O)C(C(N)=O)=C(O)[C@@H](N(C)C)[C@@H]3C[C@@H]1C2 [Compound 42] | 0.5 (≈ 0.83 µM) | 1 (≈ 1.66 µM) | > 32 | 2 (≈ 3.32 µM) | 0.0625 (≈ 0.104 µM) | 4 (≈ 6.64 µM) | 0.125 (≈ 0.207 µM) | 8 (≈ 13.3 µM) | 0.5 (≈ 0.83 µM) | 16 (≈ 26.6 µM) | 16 (≈ 26.6 µM) | 1 (≈ 1.66 µM) | 1 (≈ 1.66 µM) | 0.5 (≈ 0.83 µM) | 16 (≈ 26.6 µM)
7 | CN(C)[C@@H]1C(O)=C(C(N)=O)C(=O)[C@@]2(O)C(O)=C3C(=O)c4c(O)c(NC(=O)CN5CCCCC5)cc(F)c4C[C@H]3C[C@@H]12 [Compound 43] | 0.125 (≈ 0.218 µM) | 0.5 (≈ 0.873 µM) | 32 (≈ 55.9 µM) | 1 (≈ 1.75 µM) | ≤ 0.0156 | 1 (≈ 1.75 µM) | ≤ 0.0156 | 2 (≈ 3.49 µM) | 0.5 (≈ 0.873 µM) | 4 (≈ 6.99 µM) | 4 (≈ 6.99 µM) | 0.5 (≈ 0.873 µM) | 0.5 (≈ 0.873 µM) | 0.25 (≈ 0.437 µM) | 4 (≈ 6.99 µM)
8 | CN(C)[C@@H]1C(O)=C(C(N)=O)C(=O)[C@@]2(O)C(O)=C3C(=O)c4c(O)c(NC(=O)CN5CCOCC5)cc(F)c4C[C@H]3C[C@@H]12 [Compound 44] | 8 (≈ 13.9 µM) | 8 (≈ 13.9 µM) | > 32 | 8 (≈ 13.9 µM) | 1 (≈ 1.74 µM) | 32 (≈ 55.7 µM) | 0.5 (≈ 0.87 µM) | > 32 | 4 (≈ 6.96 µM) | > 32 | > 32 | 8 (≈ 13.9 µM) | 4 (≈ 6.96 µM) | 8 (≈ 13.9 µM) | > 32
9 | CN(C)[C@@H]1C(O)=C(C(N)=O)C(=O)[C@@]2(O)C(O)=C3C(=O)c4c(O)c(NC(=O)CN5CC6CCCC6C5)cc(F)c4C[C@H]3C[C@@H]12 (stereo partly drawn) [Compound 45] | 0.06 (≈ 0.1 µM) | 0.5 (≈ 0.835 µM) | > 32 | 1 (≈ 1.67 µM) | 0.06 (≈ 0.1 µM) | 1 (≈ 1.67 µM) | 0.125 (≈ 0.209 µM) | 2 (≈ 3.34 µM) | 0.5 (≈ 0.835 µM) | 2 (≈ 3.34 µM) | 4 (≈ 6.68 µM) | 0.5 (≈ 0.835 µM) | 0.5 (≈ 0.835 µM) | 0.25 (≈ 0.418 µM) | 4 (≈ 6.68 µM)
